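Values below derive from 48-hour exposures of cells grown in 96-well plates, with endpoints linearly interpolated between the two concentrations bracketing the appropriate inhibition level. At the TGI there is no net growth.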
Experiments:
Assay in all cases: DTP human tumour cell line panel, 48 h
OVCAR-8 ovarian = test system: OVCAR-8 ovarian
CAKI-1 renal = test system: CAKI-1 renal
SK-MEL-28 melanoma = test system: SK-MEL-28 melanoma
MALME-3M melanoma = test system: MALME-3M melanoma
UACC-62 melanoma = test system: UACC-62 melanoma
LOX IMVI melanoma = test system: LOX IMVI melanoma
M14 melanoma = test system: M14 melanoma
HOP-62 NSCLC = test system: HOP-62 NSCLC
MDA-N = test system: MDA-N
PC-3 prostate = test system: PC-3 prostate
A498 renal = test system: A498 renal
DU-145 prostate = test system: DU-145 prostate
SW-620 colon = test system: SW-620 colon
SN12C renal = test system: SN12C renal
BT-549 breast = test system: BT-549 breast
SK-OV-3 ovarian = test system: SK-OV-3 ovarian
NCI-H23 lung = test system: NCI-H23 lung
SK-MEL-5 melanoma = test system: SK-MEL-5 melanoma
OVCAR-4 ovarian = test system: OVCAR-4 ovarian
MDA-MB-435 = test system: MDA-MB-435
UO-31 renal = test system: UO-31 renal
NCI-H226 lung = test system: NCI-H226 lung
COLO 205 colon = test system: COLO 205 colon
OVCAR-5 ovarian = test system: OVCAR-5 ovarian
RPMI-8226 leukemia = test system: RPMI-8226 leukemia
OVCAR-3 ovarian = test system: OVCAR-3 ovarian
RXF 393 renal = test system: RXF 393 renal
SNB-75 CNS = test system: SNB-75 CNS
EKVX NSCLC = test system: EKVX NSCLC
HCT-116 colon = test system: HCT-116 colon
SNB-19 CNS = test system: SNB-19 CNS
HCC-2998 colon = test system: HCC-2998 colon
SF-539 CNS = test system: SF-539 CNS
MCF7 breast = test system: MCF7 breast
U251 CNS = test system: U251 CNS
MOLT-4 leukemia = test system: MOLT-4 leukemia
T-47D breast = test system: T-47D breast
UACC-257 melanoma = test system: UACC-257 melanoma
NCI-H460 lung = test system: NCI-H460 lung
TK-10 renal = test system: TK-10 renal
NCI-H522 lung = test system: NCI-H522 lung
NCI/ADR-RES ovarian = test system: NCI/ADR-RES ovarian
KM12 colon = test system: KM12 colon
IGROV1 ovarian = test system: IGROV1 ovarian
ACHN renal = test system: ACHN renal
A549 NSCLC = test system: A549 NSCLC
CCRF-CEM leukemia = test system: CCRF-CEM leukemia
SF-268 CNS = test system: SF-268 CNS
HCT-15 colon = test system: HCT-15 colon
SK-MEL-2 melanoma = test system: SK-MEL-2 melanoma
MDA-MB-231 breast = test system: MDA-MB-231 breast
SF-295 CNS = test system: SF-295 CNS
HOP-92 NSCLC = test system: HOP-92 NSCLC
SR leukemia = test system: SR leukemia
786-0 renal = test system: 786-0 renal
HT29 colon = test system: HT29 colon
K-562 leukemia = test system: K-562 leukemia
HS 578T breast = test system: HS 578T breast

CC(C)(C)C(=O)Nc1cccc(-c2ccc[nH]2)n1
TGI (OVCAR-8 ovarian): > 100 µM | TGI (CAKI-1 renal): > 100 µM | TGI (SK-MEL-28 melanoma): > 100 µM | TGI (MALME-3M melanoma): > 100 µM | TGI (UACC-62 melanoma): > 100 µM | TGI (LOX IMVI melanoma): > 100 µM | TGI (M14 melanoma): > 100 µM | TGI (HOP-62 NSCLC): > 100 µM | TGI (MDA-N): > 100 µM | TGI (PC-3 prostate): > 100 µM | TGI (A498 renal): > 100 µM | TGI (DU-145 prostate): > 100 µM | TGI (SW-620 colon): > 100 µM | TGI (SN12C renal): > 100 µM | TGI (BT-549 breast): > 100 µM | TGI (SK-OV-3 ovarian): > 100 µM | TGI (NCI-H23 lung): > 100 µM | TGI (SK-MEL-5 melanoma): > 100 µM | TGI (OVCAR-4 ovarian): > 100 µM | TGI (MDA-MB-435): > 100 µM | TGI (UO-31 renal): > 100 µM | TGI (NCI-H226 lung): > 100 µM | TGI (COLO 205 colon): > 100 µM | TGI (OVCAR-5 ovarian): > 100 µM | TGI (RPMI-8226 leukemia): 25.5 µM | TGI (OVCAR-3 ovarian): > 100 µM | TGI (RXF 393 renal): > 100 µM | TGI (SNB-75 CNS): > 100 µM | TGI (EKVX NSCLC): > 100 µM | TGI (HCT-116 colon): > 100 µM | TGI (SNB-19 CNS): > 100 µM | TGI (HCC-2998 colon): > 100 µM | TGI (SF-539 CNS): > 100 µM | TGI (MCF7 breast): > 100 µM | TGI (U251 CNS): > 100 µM | TGI (MOLT-4 leukemia): > 100 µM | TGI (T-47D breast): > 100 µM | TGI (UACC-257 melanoma): > 100 µM | TGI (NCI-H460 lung): > 100 µM | TGI (TK-10 renal): > 100 µM | TGI (NCI-H522 lung): > 100 µM | TGI (NCI/ADR-RES ovarian): > 100 µM | TGI (KM12 colon): > 100 µM | TGI (IGROV1 ovarian): > 100 µM | TGI (ACHN renal): > 100 µM | TGI (A549 NSCLC): > 100 µM | TGI (CCRF-CEM leukemia): > 100 µM | TGI (SF-268 CNS): > 100 µM | TGI (HCT-15 colon): > 100 µM | TGI (SK-MEL-2 melanoma): > 100 µM | TGI (MDA-MB-231 breast): > 100 µM | TGI (SF-295 CNS): > 100 µM | TGI (HOP-92 NSCLC): > 100 µM | TGI (SR leukemia): > 100 µM | TGI (786-0 renal): > 100 µM | TGI (HT29 colon): > 100 µM | TGI (K-562 leukemia): > 100 µM | TGI (HS 578T breast): 87.5 µM

From PubChem BioAssay (NCI)
